This note sets out measurements from patent US11040035B2, “3-oxo-2,6-diphenyl-2,3-dihydropyridazine-4-carboxamides” (BAYER PHARMA AKTIENGESELLSCHAFT, priority 2016, dated 2021).

Experiment [1] has as its target T1, AHR (Homo sapiens, UniProt P35869).
T1 sequence (P35869 11-848): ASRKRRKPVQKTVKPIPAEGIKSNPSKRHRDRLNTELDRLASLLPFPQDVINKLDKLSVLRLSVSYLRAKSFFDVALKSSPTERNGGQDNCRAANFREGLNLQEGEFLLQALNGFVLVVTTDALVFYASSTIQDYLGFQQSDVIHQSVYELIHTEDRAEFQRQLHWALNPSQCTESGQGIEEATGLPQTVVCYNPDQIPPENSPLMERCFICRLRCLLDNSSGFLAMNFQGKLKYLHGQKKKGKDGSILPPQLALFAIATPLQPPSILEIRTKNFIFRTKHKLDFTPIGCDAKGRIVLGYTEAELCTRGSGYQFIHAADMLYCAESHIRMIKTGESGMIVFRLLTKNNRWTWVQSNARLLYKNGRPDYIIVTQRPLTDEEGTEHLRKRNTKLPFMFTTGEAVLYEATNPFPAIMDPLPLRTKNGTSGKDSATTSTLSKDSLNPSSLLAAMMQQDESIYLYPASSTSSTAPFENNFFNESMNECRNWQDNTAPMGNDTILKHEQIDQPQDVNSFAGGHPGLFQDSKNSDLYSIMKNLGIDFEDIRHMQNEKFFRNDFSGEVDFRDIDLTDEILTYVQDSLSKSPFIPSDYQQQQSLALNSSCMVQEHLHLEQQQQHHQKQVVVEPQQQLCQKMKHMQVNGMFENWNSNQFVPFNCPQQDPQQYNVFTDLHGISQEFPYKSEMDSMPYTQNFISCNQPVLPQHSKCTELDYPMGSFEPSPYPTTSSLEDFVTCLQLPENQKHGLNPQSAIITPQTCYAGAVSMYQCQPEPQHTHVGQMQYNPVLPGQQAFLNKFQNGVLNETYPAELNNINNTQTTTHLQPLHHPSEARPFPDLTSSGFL
Put plainly: In vitro assay 2: agonism in human cell line (transactivation assay). As to conditions: Assay 2: AHR-luc Hum Agonism IC50 [M], no kynurenic acid, 20 hours, firefly luciferase.

Experiment [2] addresses T1, AHR. As to the kind of experiment: In vitro assay 1: antagonism in human cell line (transactivation assay, kynurenic acid prestimulated). To be noted: Assay 1: AHR-luc Hum Antagonism IC50 [M], 150 μM kynurenic acid, 20 hours, firefly luciferase.

In general, IC50 refers to the concentration needed to halve the response being measured. The low end stands for greater potency, the high end for weaker potency. In the case of `COCC(O)CNC(=O)c1cc(-c2ccc(Cl)cc2)nn(-c2cccc(F)c2)c1=O` (stereo not drawn) [Example 31, 6-(4-Chlorophenyl)-2-(3-fluorophenyl)-N-(2-hydroxy-3-methoxypropyl)-3-oxo-2,3-dihydropyridazine-4-carboxamide], the IC50 on AHR [1] is greater than 2e-05 M; against AHR [2], 1.61e-07 M.
For the compound `CC(O)CNC(=O)c1cc(-c2ccc(Cl)cc2)nn(-c2cccc(F)c2)c1=O` (stereo not drawn) [Example 34, 6-(4-Chlorophenyl)-2-(3-fluorophenyl)-N-(2-hydroxypropyl)-3-oxo-2,3-dihydropyridazine-4-carboxamide], the IC50 against AHR [1] is greater than 2e-05 M; against AHR [2], 1.88e-07 M.
Take `C[C@@H](O)CNC(=O)c1cc(-c2ccc(Cl)cc2)nn(-c2cccc(F)c2)c1=O` [Example 35, 6-(4-Chlorophenyl)-2-(3-fluorophenyl)-N-[(2R)-2-hydroxypropyl]-3-oxo-2,3-dihydropyridazine-4-carboxamide]: the IC50 is greater than 2e-05 M at AHR [1] and 1.92e-07 M at AHR [2].
Regarding `C[C@H](O)CNC(=O)c1cc(-c2ccc(Cl)cc2)nn(-c2cccc(F)c2)c1=O` [Example 36, 6-(4-Chlorophenyl)-2-(3-fluorophenyl)-N-[(2S)-2-hydroxypropyl]-3-oxo-2,3-dihydropyridazine-4-carboxamide], the IC50 at AHR [1] is greater than 2e-05 M; against AHR [2], 2.95e-07 M.
As for `O=C(NC(CO)C1CCOC1)c1cc(-c2ccc(Cl)cc2)nn(-c2cccc(F)c2)c1=O` (stereo not drawn) [Example 38, 6-(4-Chlorophenyl)-2-(3-fluorophenyl)-N-[2-hydroxy-1-(tetrahydrofuran-3-yl)ethyl]-3-oxo-2,3-dihydropyridazine-4-carboxamide], the IC50 at AHR [1] was greater than 2e-05 M; against AHR [2], 3.87e-08 M.
As for `O=C(NCC(O)C(F)(F)F)c1cc(-c2ccc(Cl)cc2)nn(-c2cc(F)cc(F)c2)c1=O` (stereo not drawn) [Example 44, 6-(4-Chlorophenyl)-2-(3,5-difluorophenyl)-3-oxo-N-(3,3,3-trifluoro-2-hydroxypropyl)-2,3-dihydropyridazine-4-carboxamide], the IC50 against AHR [1] is greater than 2e-05 M; on AHR [2], 1.99e-08 M.
On the same counts, the results for `CC(C)C(O)CNC(=O)c1cc(-c2ccc(Cl)cc2)nn(-c2cc(F)cc(F)c2)c1=O` (stereo not drawn) [Example 48, 6-(4-Chlorophenyl)-2-(3,5-difluorophenyl)-N-(2-hydroxy-3-methylbutyl)-3-oxo-2,3-dihydropyridazine-4-carboxamide] are greater than 2e-05 M and 4.93e-08 M.
On the same counts, the results for `Cc1ccc(-c2cc(C(=O)NCC(O)C(F)(F)F)c(=O)n(-c3cc(F)cc(F)c3)n2)cc1` (stereo not drawn) [Example 52, 2-(3,5-Difluorophenyl)-6-(4-methylphenyl)-3-oxo-N-(3,3,3-trifluoro-2-hydroxypropyl)-2,3-dihydropyridazine-4-carboxamide] are greater than 2e-05 M and 1.17e-08 M.
Take `Cc1ccc(-c2cc(C(=O)NCC(O)C(C)C)c(=O)n(-c3cc(F)cc(F)c3)n2)cc1` (stereo not drawn) [Example 56, 2-(3,5-Difluorophenyl)-N-(2-hydroxy-3-methylbutyl)-6-(4-methylphenyl)-3-oxo-2,3-dihydropyridazine-4-carboxamide]: the IC50 against AHR [1] is greater than 2e-05 M; against AHR [2], 4e-08 M.
The like results for `C[C@@H](CO)NC(=O)c1cc(-c2ccc(Cl)cc2)nn(-c2cccc(Cl)c2)c1=O` [Example 66, 2-(3-Chlorophenyl)-6-(4-chlorophenyl)-N-[(2S)-1-hydroxypropan-2-yl]-3-oxo-2,3-dihydropyridazine-4-carboxamide] were, in that order, greater than 2e-05 M and 1.65e-07 M.
In the case of `CC(C)[C@@H](CO)NC(=O)c1cc(-c2ccc(Cl)cc2)nn(-c2ccccc2)c1=O` [Example 75, 6-(4-chlorophenyl)-N-[(2S)-1-hydroxy-3-methylbutan-2-yl]-3-oxo-2-phenyl-2,3-dihydropyridazine-4-carboxamide], the IC50 on AHR [1] is greater than 2e-05 M; against AHR [2], 3.45e-08 M.
On to `O=C(NCC(O)C(F)(F)F)c1cc(-c2ccc(Cl)cc2)nn(-c2ccccc2)c1=O` (stereo not drawn) [Example 76, 6-(4-chlorophenyl)-3-oxo-2-phenyl-N-(3,3,3-trifluoro-2-hydroxypropyl)-2,3-dihydropyridazine-4-carboxamide], for which the IC50 at AHR [1] was greater than 2e-05 M; at AHR [2] it was 9.37e-08 M.
As to `C[C@@H](CO)NC(=O)c1cc(-c2ccc(Cl)cc2)nn(-c2ccccc2)c1=O` [Example 80, 6-(4-chlorophenyl)-N-[(2S)-1-hydroxypropan-2-yl]-3-oxo-2-phenyl-2,3-dihydropyridazine-4-carboxamide], the results for the IC50 at AHR [1] and on AHR [2] were greater than 2e-05 M and 2.14e-07 M, respectively.
Take `CC(C)[C@@H](CO)NC(=O)c1cc(-c2ccc(C(F)F)cc2)nn(-c2cccc(F)c2)c1=O` [Example 91, 6-[4-(Difluoromethyl)phenyl]-2-(3-fluorophenyl)-N-[(2S)-1-hydroxy-3-methylbutan-2-yl]-3-oxo-2,3-dihydropyridazine-4-carboxamide]: the IC50 is greater than 2e-05 M against AHR [1] and 4.44e-09 M against AHR [2].
In the case of `CC[C@@H](CO)NC(=O)c1cc(-c2ccc(C(F)F)cc2)nn(-c2cccc(F)c2)c1=O` [Example 92, 6-[4-(Difluoromethyl)phenyl]-2-(3-fluorophenyl)-N-[(2S)-1-hydroxybutan-2-yl]-3-oxo-2,3-dihydropyridazine-4-carboxamide], the IC50 was greater than 2e-05 M on AHR [1] and 1.2e-08 M against AHR [2].
The like results for `C[C@@H](CO)NC(=O)c1cc(-c2ccc(C(F)F)cc2)nn(-c2cccc(F)c2)c1=O` [Example 93, 6-[4-(Difluoromethyl)phenyl]-2-(3-fluorophenyl)-N-[(2S)-1-hydroxypropan-2-yl]-3-oxo-2,3-dihydropyridazine-4-carboxamide] were, in that order, greater than 2e-05 M and 3.02e-08 M.
On the same counts, the results for `O=C(NCC(O)C(F)(F)F)c1cc(-c2ccc(C(F)F)cc2)nn(-c2cccc(F)c2)c1=O` (stereo not drawn) [Example 94, 6-[4-(Difluoromethyl)phenyl]-2-(3-fluorophenyl)-3-oxo-N-(3,3,3-trifluoro-2-hydroxypropyl)-2,3-dihydropyridazine-4-carboxamide] are greater than 2e-05 M and 1.54e-08 M.
For `COc1ccc(-c2cc(C(=O)NC(CO)C(F)(F)F)c(=O)n(-c3cccc(F)c3)n2)cc1` (stereo not drawn) [Example 100, 2-(3-Fluorophenyl)-6-(4-methoxyphenyl)-3-oxo-N-(1,1,1-trifluoro-3-hydroxypropan-2-yl)-2,3-dihydropyridazine-4-carboxamide], the IC50 against AHR [1] was greater than 2e-05 M; on AHR [2] it was 1.09e-08 M.
On to `CC(C)[C@@H](CO)NC(=O)c1cc(-c2ccc(OC(F)F)cc2)nn(-c2cccc(F)c2)c1=O` [Example 110, 6-[4-(Difluoromethoxy)phenyl]-2-(3-fluorophenyl)-N-[(2S)-1-hydroxy-3-methylbutan-2-yl]-3-oxo-2,3-dihydropyridazine-4-carboxamide], for which the IC50 on AHR [1] is greater than 2e-05 M; against AHR [2] it was 1.79e-08 M.
The like results for `COc1ccc(-c2cc(C(=O)N[C@H](CO)C(C)C)c(=O)n(-c3cccc(F)c3)n2)cc1` [Example 113, 2-(3-Fluorophenyl)-N-[(2S)-1-hydroxy-3-methylbutan-2-yl]-6-(4-methoxyphenyl)-3-oxo-2,3-dihydropyridazine-4-carboxamide] were, in that order, greater than 2e-05 M and 1.8e-08 M.
Take `O=C(NCC(O)C(F)(F)F)c1cc(-c2ccc(OC(F)F)cc2)nn(-c2cccc(F)c2)c1=O` (stereo not drawn) [Example 120, 6-[4-(Difluoromethoxy)phenyl]-2-(3-fluorophenyl)-3-oxo-N-(3,3,3-trifluoro-2-hydroxypropyl)-2,3-dihydropyridazine-4-carboxamide]: the results for the IC50 at AHR [1] and on AHR [2] were greater than 2e-05 M and 4.47e-08 M, respectively.
On to `COc1ccc(-c2cc(C(=O)NCC(O)C(F)(F)F)c(=O)n(-c3cccc(F)c3)n2)cc1` (stereo not drawn) [Example 126, 2-(3-Fluorophenyl)-6-(4-methoxyphenyl)-3-oxo-N-(3,3,3-trifluoro-2-hydroxypropyl)-2,3-dihydropyridazine-4-carboxamide], for which the IC50 is greater than 2e-05 M against AHR [1] and 5.13e-08 M on AHR [2].
Take `C[C@H](O)[C@H](CO)NC(=O)c1cc(-c2ccc(Cl)cc2)nn(-c2cccc(F)c2)c1=O` [Example 132, 6-(4-Chlorophenyl)-N-[(2S,3S)-1,3-dihydroxybutan-2-yl]-2-(3-fluorophenyl)-3-oxo-2,3-dihydropyridazine-4-carboxamide]: the IC50 against AHR [1] is greater than 2e-05 M; on AHR [2] it was 1.36e-07 M.
With `CC[C@@H](CO)NC(=O)c1cc(-c2ccc(OC(F)F)cc2)nn(-c2cccc(F)c2)c1=O` [Example 137, 6-[4-(Difluoromethoxy)phenyl]-2-(3-fluorophenyl)-N-[(2S)-1-hydroxybutan-2-yl]-3-oxo-2,3-dihydropyridazine-4-carboxamide], the 50% inhibitory concentration (IC50) against AHR [1] was greater than 2e-05 M; against AHR [2] it was 4.99e-08 M.
